According to patent US11066447B2, “Aureobasidium derivatives and methods of synthesis” (AureoGen Biosciences, Inc., priority 2016, dated 2021):
≈ marks a conversion by molar mass, not a printed value. Where “and” joins values, the source holds several entries; their conditions need not be identical. Equal values may be shown once. Read-outs that look alike come from different tables or passages of the source. Numbered stars: 1 amine (or outer) side, 2 acyl side, 3 side chain; on linkers, the order of the positions; unused ones are H or OH. Square brackets hold non-standard residues; d marks the D form. Peptide text beside a SMILES is read from it. ξ: configuration not given here. X1 = CC(C)N1CCN(c2ccc(-c3cccc(C[C@@H](C(=O)[*:2])N(C)[*:1])c3)cc2)CC1; X2 = CN1CCN(c2ccc(-c3cccc(C[C@@H](C(=O)[*:2])N(C)[*:1])c3)cc2)CC1; X7 = CC(C)N1CCN(c2ccc(-c3cccc(C[C@H](N[*:1])C(=O)[*:2])c3)cc2)CC1; X10 = CN([C@@H](Cc1cccc(-c2ccc(N3CCNCC3)nc2)c1)C(=O)[*:2])[*:1]; NMePhe(3-(3-pyridyl)) = CN[C@@H](Cc1cccc(-c2cccnc2)c1)C(=O)O; X36 = CN([C@@H](Cc1ccc(-c2cccnc2)cc1)C(=O)[*:2])[*:1]; Hmp(2R,3S) = CC[C@H](C)[C@@H](O)C(=O)O; NMeVal(β-OH) = CN[C@H](C(=O)O)C(C)(C)O; X6 = CCC(C)[C@@H](O[*:1])C(=O)[*:2]; ξNMeVal(3-OH) = CNC(C(=O)O)C(C)(C)O; Ile(3ξ) = CCC(C)[C@H](N)C(=O)O; NMeV = CN[C@H](C(=O)O)C(C)C; ξL = CC(C)CC(N)C(=O)O

Assays:
[1] = system: A. fumigates; experiment: Antifungal activity of separated positional isomers of Compound X; format: cell-based
Description: Test Procedure. The MIC assay method followed the procedure described by CLSI (1, 2) and employed automated liquid handlers to conduct serial dilutions and liquid transfers. Automated liquid handlers included the Multidrop 384 (Labsystems, Helsinki, Finland), Biomek 2000 and Biomek FX (Beckman Coulter, Fullerton Calif.). The wells in columns 2-12 in standard 96-well microdilution plates (Costar 3795) were filled with 150 μl of the appropriate diluent (95% EtOH for investigational compounds, 100% DMSO for amphotericin B). These assay plates would become the ‘mother plates’ from which the assay ‘daughter plates’ would be prepared. The drugs (300 μL at 40× the desired top concentration in the test plates) were dispensed into the appropriate well in Column 1 of the mother plates. The Biomek 2000 was used to make two-fold serial dilutions through Column 11 in the “mother plate”. The wells of Column 12 contained no drug and served as the organism growth control wells.
The microplates were viewed from the bottom using a plate viewer. […] The MIC was read and recorded as the lowest concentration of drug that inhibited visible growth of the organism. MECs were read where the growth shifted to a small, rounded, compact hyphal form as compared to the hyphal growth seen in the growth control well. […]

[2] = system: C. albicans MMX 2000 ATCC 10231; experiment: MIC assay (CLSI microdilution); format: cell-based; conditions: Candida albicans, ATCC10231, RPMI plus 0.002% Tween-80; read-out: MIC
[3] = system: C. neoformans MMX 0634 ATCC 90112; experiment: MIC assay (CLSI microdilution); format: cell-based; conditions: Cryptococcus neoformans, read-out: MIC
[4] = system: C. parapsilosis MMX 2323 ATCC 22019; experiment: MIC assay (CLSI microdilution); format: cell-based, Candida parapsilosis
Outline: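 Broth microdilution MIC testing of Candida parapsilosis ATCC 22019 followed CLSI methods in RPMI-1640, with or without 0.002% Tween-80. Yeast grown 48 hours at 35° C on Sabouraud dextrose agar was suspended to a 0.5 McFarland standard and diluted 1:100 to roughly 0.5-2.5×10^3 CFU/mL. The MIC was the lowest concentration preventing visible growth.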

[5] = system: A. flavus MMX 5948; experiment: MIC/MEC assay (CLSI microdilution); format: cell-based; conditions: Aspergillus flavus, MMX5948, 48 h; for minimal effective concentration: RPMI plus 0.002% Tween-80; for MIC: RPMI plus 0.002% Tween-80, read-out: MIC
Outline: (§1)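 Broth microdilution per CLSI in RPMI-1640 with 0.002% Tween-80; MMX 5280 also run without Tween-80. Test compounds serially diluted two-fold in 95% ethanol, amphotericin B in DMSO (0.06-64 μg/mL). Aspergillus spore inoculum gave approximately 0.2-2.5×10^4 CFU/mL final.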

[6] = system: A. fumigatus MMX 5944; experiment: MIC/MEC assay (CLSI microdilution); format: cell-based; conditions: for minimal effective concentration / MIC: Aspergillus fumigatus, MMX5944, 48 h; for MIC: RPMI plus 0.002% Tween-80, read-out: MIC
Outline: as §1

[7] = system: A. fumigatus MMX 6781 ATCC MYA-4609; experiment: MIC/MEC assay (CLSI microdilution); format: cell-based
Outline: as §1

[8] = system: A. fumigatus MMX 6782 ATCC 13073; experiment: MIC/MEC assay (CLSI microdilution); format: cell-based; conditions: for minimal effective concentration: RPMI plus 0.002% Tween-80, read-out: MEC
Outline: as §1

[9] = system: A. fumigatus from Aureogen; experiment: MIC/MEC assay (CLSI microdilution); format: cell-based; conditions: Aspergillus fumigatus, 48 h; for minimal effective concentration: RPMI plus 0.002% Tween-80; for MIC: RPMI plus 0.002% Tween-80, read-out: MIC
Outline: as §1

[10] = system: A. niger MMX 0624 ATCC 16888; experiment: MIC/MEC assay (CLSI microdilution); format: cell-based; conditions: for minimal effective concentration: RPMI plus 0.002% Tween-80, read-out: MEC
Outline: as §1

[11] = system: A. fumigatus MMX 5280 ATCC MYA-3626; experiment: MIC/MEC assay (CLSI microdilution); format: cell-based, Aspergillus fumigatus
Outline: as §1

[12] = system: C. albicans MMX 2000 ATCC 10231; experiment: MIC assay (CLSI microdilution); format: cell-based; conditions: Candida albicans, ATCC10231, Without Tween-80; read-out: MIC
[13] = ATCC90112, 72 h, 72 hour, RPMI plus 0.002% Tween-80
[14] = ATCC22019, RPMI plus 0.002% Tween-80, read-out: MIC
[15] = ATCC22019, Without Tween-80, read-out: MIC
[16] = RPMI plus 0.002% Tween-80, 48 hr
[17] = Aspergillus fumigatus, 48 h, RPMI plus 0.002% Tween-80, read-out: MIC
[18] = Aspergillus fumigatus, ATCC13073, 48 h
[19] = Aspergillus fumigatus, ATCC13073, 48 h, RPMI plus 0.002% Tween-80, read-out: MIC
[20] = Aspergillus niger, ATCC16888, 48 h
[21] = Aspergillus niger, ATCC16888, 48 h, RPMI plus 0.002% Tween-80, read-out: MIC
[22] = Aspergillus fumigatus, 48 h, RPMI plus 0.002% Tween-80, read-out: MEC
[23] = Aspergillus fumigatus, 48 h, Without Tween-80, read-out: MIC

| SMILES | MIC [1] | MIC [2] | MIC [3, 13] | MIC [4, 14] | MIC [4, 15] | minimal effective concentration [5] | MIC [5] | minimal effective concentration ([6]; RPMI plus 0.002% Tween-80) | MIC [6] | minimal effective concentration [8, 18] | MIC [8, 19] | minimal effective concentration [9] | MIC [9] | minimal effective concentration [10, 20] | MIC [10, 21] | minimal effective concentration [11, 22] | MIC [11, 17] | MIC [11, 23] | MEC ([11]; Without Tween-80, 48 hr) | MIC [12] | further results |
| --- | --- | --- | --- | --- | --- | --- | --- | --- | --- | --- | --- | --- | --- | --- | --- | --- | --- | --- | --- | --- | --- |
| CCC(C)[C@@H]1NC(=O)[C@@H]2CCCN2C(=O)[C@H](Cc2cccc(-c3cccnc3)c2)N(C)C(=O)[C@H](Cc2ccccc2)NC(=O)[C@H](C(C)C)N(C)C(=O)[C@@H](C(C)CC)OC(=O)C(C(C)(C)O)N(C)C(=O)C(CC(C)C)NC(=O)[C@H](C(C)C)N(C)C1=O (stereo partly drawn) [meta-substituted positional isomer of Compound X] (cyclo(F[NMePhe(3-(3-pyridyl))]P[Ile(3ξ)][NMeV][ξL][ξNMeVal(3-OH)][X6][NMeV])) | 0.6 µg/mL (≈ 0.509 µM) |  |  |  |  |  |  |  |  |  |  |  |  |  |  |  |  |  |  |  |  |
| CC[C@H](C)[C@@H]1NC(=O)[C@@H]2CCCN2C(=O)[C@H](Cc2cccc(-c3ccc(N4CCN(C)CC4)cc3)c2)N(C)C(=O)[C@H](Cc2ccccc2)NC(=O)[C@H](C(C)C)N(C)C(=O)[C@@H]([C@@H](C)CC)OC(=O)[C@H](C(C)(C)O)N(C)C(=O)[C@H](CC(C)C)NC(=O)[C@H](C(C)C)N(C)C1=O [Compound 19] (cyclo(F[X2]PI[NMeV]L[NMeVal(β-OH)][Hmp(2R,3S)][NMeV])) |  | 0.015 µg/mL | 0.06 µg/mL | 0.03 µg/mL | 1 µg/mL (≈ 0.784 µM) | 0.008 µg/mL | 0.015 µg/mL | 0.015 µg/mL | 0.06 µg/mL | 0.03 µg/mL | 0.12 µg/mL | 0.06 µg/mL | 0.25 µg/mL | 0.008 µg/mL | 0.015 µg/mL | 0.06 µg/mL | 0.25 µg/mL | 1 µg/mL (≈ 0.784 µM) | 1 µg/mL | 0.5 µg/mL (≈ 0.392 µM) | MIC ([3]; ATCC90112, RPMI plus 0.002% Tween-80): 0.03 µg/mL; MIC ([4]; Without Tween-80): 2 µg/mL (≈ 1.57 µM); MEC [6, 16]: 0.015 µg/mL; MIC [7, 17]: 0.12 µg/mL; minimal effective concentration ([7]; Aspergillus fumigatus, RPMI plus 0.002% Tween-80, 48 hr): 0.06 µg/mL; MIC [10, 16]: 0.015 µg/mL; minimal effective concentration ([11]; Aspergillus fumigatus, 48 h, Without Tween-80, read-out: MEC): 0.5 µg/mL; MIC ([11]; Without Tween-80, 48 hr): 2 µg/mL (≈ 1.57 µM) |
| CC[C@H](C)[C@@H]1NC(=O)[C@@H]2CCCN2C(=O)[C@H](Cc2cccc(-c3ccc(N4CCNCC4)nc3)c2)N(C)C(=O)[C@H](Cc2ccccc2)NC(=O)[C@H](C(C)C)N(C)C(=O)[C@@H]([C@@H](C)CC)OC(=O)[C@H](C(C)(C)O)N(C)C(=O)[C@H](CC(C)C)NC(=O)[C@H](C(C)C)N(C)C1=O [Compound 30] (cyclo(F[X10]PI[NMeV]L[NMeVal(β-OH)][Hmp(2R,3S)][NMeV])) |  | 0.015 µg/mL | 0.25 µg/mL | 0.06 µg/mL | 2 µg/mL (≈ 1.58 µM) | 0.12 µg/mL | 0.5 µg/mL | 0.5 µg/mL | 1 µg/mL | 0.5 µg/mL | 2 µg/mL | 0.5 µg/mL | 1 µg/mL | 0.5 µg/mL | 0.5 µg/mL |  |  | 2 µg/mL (≈ 1.58 µM) | 1 µg/mL | 0.5 µg/mL (≈ 0.396 µM) | MEC [7, 16]: 1 µg/mL; MIC [7, 16]: 2 µg/mL; MEC [11, 16]: 1 µg/mL; MIC [11, 16]: 2 µg/mL |
| CCC(C)[C@@H]1NC(=O)[C@@H]2CCCN2C(=O)[C@H](Cc2ccc(-c3cccnc3)cc2)N(C)C(=O)[C@H](Cc2ccccc2)NC(=O)[C@H](C(C)C)N(C)C(=O)[C@@H](C(C)CC)OC(=O)C(C(C)(C)O)N(C)C(=O)C(CC(C)C)NC(=O)[C@H](C(C)C)N(C)C1=O (stereo partly drawn) [para substituted positional isomer of Compound X] (cyclo(F[X36]P[Ile(3ξ)][NMeV][ξL][ξNMeVal(3-OH)][X6][NMeV])) | > 2.5 µg/mL |  |  |  |  |  |  |  |  |  |  |  |  |  |  |  |  |  |  |  |  |
| CC[C@H](C)[C@@H]1NC(=O)[C@@H]2CCCN2C(=O)[C@H](Cc2cccc(-c3ccc(N4CCN(C(C)C)CC4)cc3)c2)N(C)C(=O)[C@H](Cc2cccc(-c3ccc(N4CCN(C(C)C)CC4)cc3)c2)NC(=O)[C@H](C(C)C)N(C)C(=O)[C@@H]([C@@H](C)CC)OC(=O)[C@H](C(C)(C)O)N(C)C(=O)[C@H](CC(C)C)NC(=O)[C@H](C(C)C)N(C)C1=O [Compound 31] (cyclo(I[NMeV]L[NMeVal(β-OH)][Hmp(2R,3S)][NMeV][X7][X1]P)) |  | 0.06 µg/mL | 1 µg/mL | 0.5 µg/mL | 2 µg/mL (≈ 1.33 µM) | 0.12 µg/mL | 0.5 µg/mL | 0.5 µg/mL | 1 µg/mL |  |  | 0.25 µg/mL | 0.5 µg/mL | 0.5 µg/mL | 1 µg/mL | 0.5 µg/mL | 2 µg/mL | 1 µg/mL (≈ 0.664 µM) | 1/1 μg/mL and 1 μg/mL | 1 µg/mL (≈ 0.664 µM) | MEC [7, 16]: 1 µg/mL; MIC [7, 16]: 2 µg/mL; MEC [8, 16]: 1 µg/mL; MIC [8, 16]: 2 µg/mL; MIC ([11]; Without Tween-80, 48 hr): 2 µg/mL (≈ 1.33 µM) |
